Laboratory results: paper PMC2116318 (The Journal of Cell Biology, 1990)

Assays:
[1] = test system: sea urchin egg CaM kinase; test: Autocamtide-2 phosphorylation by sea urchin egg extracts; type: biochemical, L. pictus (sea urchin)
[2] = test system: rat brain CaM kinase; test: Autocamtide-2 phosphorylation by purified rat brain CaM kinase; type: biochemical
[3] = test system: 56-kD α-like egg polypeptide (sea urchin egg CaM kinase); test: Endogenous phosphorylation in sea urchin egg calmodulin-depleted cytosol; type: biochemical, L. pictus (sea urchin); conditions: 50 μM peptide in Fig. 5 A
[4] = test system: rat brain CaM kinase; test: Autophosphorylation of rat brain CaM kinase; type: biochemical; conditions: 50 μM peptide in Fig. 5 B
[5] = test system: L. pictus eggs (nuclear envelope breakdown); test: Nuclear envelope breakdown; type: cell-based, L. pictus (sea urchin); conditions: for Delay of NEB (fraction of eggs) / Duration of delay of NEB / Normal NEB (fraction of eggs): Table I, injected before fertilization
[6] = higher concentrations, over 4% of the cell volume

inhibition of egg kinase (in words) ([1]; Discussion summary): very weak inhibitor | phosphorylation of autocamtide-2 (effect in words) ([1]; calmodulin-depleted cytosol fractions, Fig. 4): not affected | inhibitory effects on phosphorylation of autocamtide-2 (in words) ([1]; sea urchin egg extracts, concentrations up to 100 μM, Fig. 4): no apparent inhibitory effects | inhibition of brain kinase (in words) ([2]; Discussion summary): very weak inhibitor | inhibition of rat brain kinase (in words) ([2]; Fig. 4): does not inhibit rat brain kinase | endogenous phosphorylation of the α-like subunit (effect in words) [3]: only marginally affected | autophosphorylation of rat brain kinase (effect in words) [4]: only slightly inhibited | delay of NEB in one case ([5]; estimated intracellular concentration 80 μM): 9 min
Substance: CaMK(284-302): control peptide, lacks a critical region of the autoinhibitory domain and therefore does not inhibit CaM kinase (QETVDCLKKFNARRKLKGA; UniProt P11275 284-302, looked up, fragment)
effect on NEB (in words) ([5]; Discussion summary): minimal effects on NEB | Delay of NEB (fraction of eggs) ([5]; 1.7-3.5% vol, 60-190 μM): 1/9 | Duration of delay of NEB ([5]; 1.7-3.5% vol, 60-190 μM): 9 min | Normal NEB (fraction of eggs) ([5]; 1.7-3.5% vol, 60-190 μM): 8/9 | Delay of NEB (fraction of eggs) ([5]; 4.1-4.8% vol, 220-260 μM): 3/4 | Duration of delay of NEB ([5]; 4.1-4.8% vol, 220-260 μM): 11 to 27 min | Normal NEB (fraction of eggs) ([5]; 4.1-4.8% vol, 220-260 μM): 1/4 | NEB (in words) ([5]; control peptide, text on Fig. 6): normal NEB | delay of NEB ([5]; higher concentrations, injection volumes over 4% of the cell volume): 11 to 27 min | cases in which NEB proceeded normally [5, 6]: one case | cases with delayed NEB [5, 6]: three of four
